Measurements published in patent publication US12478624B2, “Heterocyclic derivatives, pharmaceutical compositions and their use in the treatment or amelioration of cancer” (Tolremo Therapeutics AG, priority 2019, dated 2025).

How the values were obtained:
OPM-2 = assay: Assay 2: multiple myeloma cellular efficacy, PrestoBlue cell proliferation/survival; type: cell-based; details: Homo sapiens, 96 h, OPM-2 cells, 4 days
How it was run: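 Cells seeded at 10000/well and exposed to a compound dose range or vehicle for 4 days, then stained with PrestoBlue for 2 h at 37 °C. Fluorescence was background-subtracted and normalized to vehicle; EC50 came from a four-parameter variable-slope fit against log concentration.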

A375 cells = assay: Assay 1: A375 cells treated with S1152, S1008 and compound, immunofluorescence (sc-365823) signal; type: cell-based; details: 1 μM S1152 + 0.5 μM S1008, one day
How it was run: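 A375 cells treated one day with 1 μM S1152, 0.5 μM S1008 and compound dose ranges in DMEM/10% FCS, then fixed, permeabilised and immunostained. Green signal normalised to nuclear counterstain (ethidium-type or DAPI), log ratio fitted by four-parameter regression for EC50.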

EC50 (A375 cells) [nM] | Structure (SMILES) | EC50 (OPM-2) [nM]
< 200 | CC(=O)N1C[C@H](c2nc(Nc3cc(C)nc(F)c3)cc(-c3cccnc3)n2)CC[C@@H]1C [Compound 00134, 1-((2S,5R)-5-(4-((2-fluoro-6-methylpyridin-4-yl)amino)-6-(pyridin-3-yl)pyrimidin-2-yl)-2-methylpiperidin-1-yl)ethan1-one] | < 200
1000 to 10000 | CC(=O)Nc1cc(Nc2cc(-c3cccnc3)nc([C@@H]3CC[C@H](C)N(C(C)=O)C3)n2)ccn1 [Compound 00136, N-(4-((2-((3R,6S)-1-acetyl-6-methylpiperidin-3-yl)-6-(pyridin-3-yl)pyrimidin-4-yl)amino)pyridin-2-yl)acetamide] | 1000 to 10000
200 to 1000 | CC(=O)Nc1cc(Nc2cc(-c3cnccn3)nc([C@@H]3CC[C@H](C)N(C(C)=O)C3)n2)ccn1 [Compound 00137, N-(4-((2-((3R,6S)-1-acetyl-6-methylpiperidin-3-yl)-6-(pyrazin-2-yl)pyrimidin-4-yl)amino)pyridin-2-yl)acetamide] | 1000 to 10000
< 200 | CC(=O)N1C[C@H](c2nc(Nc3cc(C)nc(C)c3)cc(-c3cccnc3)n2)CC[C@@H]1C [Compound 00138, 1-((2S,5R)-5-(4-((2,6-dimethylpyridin-4-yl)amino)-6-(pyridin-3-yl)pyrimidin-2-yl)-2-methylpiperidin-1-yl)ethan-1-one] | 200 to 1000
< 200 | COc1cc(Nc2cc(-c3cccnc3)nc([C@@H]3CC[C@H](C)N(C(C)=O)C3)n2)ccn1 [Compound 00139, 1-((2S,5R)-5-(4-((2-methoxypyridin-4-yl)amino)-6-(pyridin-3-yl)pyrimidin-2-yl)-2-methylpiperidin-1-yl)ethan1-one] | < 200
< 200 | COc1cc(Nc2cc(-c3cccnc3)nc([C@@H]3CC[C@H](C)N(C(C)=O)C3)n2)cc(C)n1 [Compound 00140, 1-((2S,5R)-5-(4-((2-methoxy-6-methylpyridin-4-yl)amino)-6-(pyridin-3-yl)pyrimidin-2-yl)-2-methylpiperidin-1-yl)ethan-1-one] | < 200
< 200 | CC(=O)N1C[C@H](c2nc(Nc3cccc(-c4nnco4)c3)cc(-c3cccnc3)n2)CC[C@@H]1C [Compound 00141, 1-((2S,5R)-5-(4-((3-(1,3,4-oxadiazol-2-yl)phenyl)amino)-6-(pyridin-3-yl)pyrimidin-2-yl)-2-methylpiperidin-1-yl)ethan-1-one] | < 200
< 200 | CC(=O)N1C[C@H](c2nc(Nc3cccc(-c4nnc(C)o4)c3)cc(-c3cccnc3)n2)CC[C@@H]1C [Compound 00142, 1-((2S,5R)-2-methyl-5-(4-((3-(5-methyl-1,3,4-oxadiazol-2-yl)phenyl)amino)-6-(pyridin-3-yl)pyrimidin-2-yl)piperidin-1-yl)ethan-1-one] | < 200
< 200 | CC(=O)N1C[C@H](c2nc(Nc3ccnc(-c4cnn(C)c4)c3)cc(-c3cccnc3)n2)CC[C@@H]1C [Compound 00143, 1-((2S,5R)-2-methyl-5-(4-((2-(1-methyl-1H-pyrazol-4-yl)pyridin-4-yl)amino)-6-(pyridin-3-yl)pyrimidin-2-yl)piperidin-1-yl)ethan-1-one] | < 200
< 200 | CC(=O)N1C[C@H](c2nc(Nc3cc(C)nc(C(F)F)c3)cc(-c3cccnc3)n2)CC[C@@H]1C [Compound 00144, 1-((2S,5R)-5-(4-((2-(difluoromethyl)-6-methylpyridin-4-yl)amino)-6-(pyridin-3-yl)pyrimidin-2-yl)-2-methylpiperidin-1-yl)ethan-1-one] | < 200
< 200 | CC(=O)N1C[C@H](c2nc(Nc3cc(C)nc(C(F)F)c3)cc(-c3cnccn3)n2)CC[C@@H]1C [Compound 00145, 1-((2S,5R)-5-(4-((2-(difluoromethyl)-6-methylpyridin-4-yl)amino)-6-(pyrazin-2-yl)pyrimidin-2-yl)-2-methylpiperidin-1-yl)ethan-1-one] | < 200
